Laboratory results as given in patent US20070155827A1, “USE OF BENZO-FUSED HETEROCYCLE SULFAMIDE DERIVATIVES FOR THE TREATMENT OF DEPRESSION” (priority 2005, published 2007).
Read-outs that look alike come from different tables or passages of the source.

Experiments:
[1] = tested on: Male Wistar rats; assay: Chronic Mild Stress Model (Chronic), sucrose consumption; assay type: in vivo; conditions: stressed animals, once daily i.p.
Source text: In the chronic mild stress (CMS) model rats subjected to a variety of mild stressors for a prolonged period of time show, among other behavioural, biochemical and physiological impairments, a substantial decrease in their responsiveness to rewarding stimuli. This deficit is usually monitored by a decrease in the consumption of the 1% sucrose solution, but can also be seen in other tests, such as place preference conditioning or intracranial self-stimulation. Since the subsensitivity to reward appears to reflect anhedonia (inability to experience pleasure), which is a core symptom of major depressive disorders, the CMS procedure may serve as a suitable research tool in studies into the mechanisms of antidepressant action.
Male Wistar rats were brought into the laboratory two months before the start of the experiment. Except as described below, the animals were singly housed with food and water freely available, and were maintained on a 12-h light/dark and in a constant temperature (22±2° C.) and humidity (50±5%) conditions.
The animals were first trained to consume a 1% sucrose solution; training consisted of eight 1 h baseline tests in which sucrose was presented, in the home cage, following 14 h food and water deprivation; the sucrose intake was measured by weighing pre-weighed bottles containing the sucrose solution, at the end of the test. Subsequently, sucrose consumption was monitored, under similar conditions, at weekly intervals throughout the whole experiment.
On the basis of their sucrose intakes in the final baseline test, the animals were divided into two matched groups. One group of animals was subjected to the chronic mild stress procedure for a period of 7 consecutive weeks. Each week of stress regime consisted of: two periods of food or water deprivation, two periods of 45 degree cage tilt, two periods of intermittent illumination (lights on and off every 2 h), two periods of soiled cage (250 ml water in sawdust bedding), one period of paired housing, two periods of low intensity stroboscopic illumination (150 flashes/min), and three periods of no stress. All stressors were 10-14 h of duration and were applied individually and continuously, day and night. Control animals were housed in separate rooms and had no contact with the stressed animals. They were deprived of food and water for the 14 h preceding each sucrose test, but otherwise food and water were freely available in the home cage.
The drugs were administered at approx. 10.00 and the weekly sucrose tests were carried out 24 h following the last drug injections. […]
All results obtained in this study were analyzed by multiple analyses of variance with three between-subjects factors (stress/control, drug treatments and successive sucrose tests). […]

[2] = tested on: Male Sprague Dawley rats; assay: Forced Swim Test (Acute), FST; assay type: in vivo
Experimental: The Forced Swim test (FST) is a commonly used procedure to screen compounds for possible antidepressant properties. This test is also known as the behavioral despair test. Rodents placed in […] tanks filled with water present a wide variety of escape or immobility behaviors. Antidepressant drugs from different classes markedly increase escape behaviors and/or decrease latency or duration of immobility.
Venlafaxine and desipramine were dissolved in water. All drugs and their vehicles were administered orally (p.o.) by gavage in a volume of 5 mL/kg.
Male Sprague Dawley rats (140 to 160 g) from Charles River Laboratories Wilmington, Mass. were used. The animals went through a five-day quarantine period before being subjected to the experimental procedure.
Animals were housed in groups of four in plastic cages at an ambient temperature of 21° C. to 23° C. with an automated 12 hour light/dark cycle and access to water and commercial rodent food ad libitum. Animals were not handled more than for the routine bedding change prior to pre-test swim session.
Each experiment consisted of seven treatment groups with n=4 animals per group. A total of 28 animals per experiment were used. Two consecutive experiments (1 and 2, 3 and 4, and 5 and 6) were exact replicas of each other. […] One treatment group of n=4 animals in each experiment was a vehicle treated group. […] In experiments 5 and 6 the effects of venlafaxine and maprotyline at 12 mg/kg, 30 mg/kg, and 60 mg/kg were tested.
The basic apparatus consisted of a cylinder (46 cm tall×˜20 cm diameter) filled with water to 30 cm deep, at a temperature of 25±1° C. The automated version of the FST was used to perform the experiments. Plumbing for automatic filling and emptying water connected the four cylinders. Cylinders were placed in the dividing chambers 25 cm wide to separate animals visually. Each 5-minute experimental session was videotaped and analyzed in real time by computer software (Clever Systems, Inc.) for four animals at a time. The immobility, swimming, climbing and escape times were recorded by the software. The four activities are defined as follow. Immobility: the animal floats motionlessly or makes only those movements necessary to keep its head above water; Climb: the animal vigorously moves vertically while scratching the wall around the cylinder; Swim: the animal moves horizontally around in the cylinder more than necessary to keep its head above water; and Escape: sum of all vigorous active movements.
The ability of a test compound to decrease the duration or frequency of immobility, or changes in swimming, climbing and escape times, was measured using the FST procedure described above. […] The analysis of the results in the studies described was focused on the immobility time during 5-minute test session.
There were two swim sessions in each experiment. First, a pre-test swim session for 15 minutes was performed. Following 48 hours later was a test session of 5-minute duration. Upon completion of a swim session, each animal was placed under a heat lamp in a cage with soft bedding for approximately 15 minutes to prevent hypothermia.
Animals were pre-treated with a vehicle or test compound after completing the pre-test swim session, then 24 hours later and then shortly prior to the 5-minute test session; i.e., three injections were given to each animal between the two swim sessions that occurred on 3 consecutive days.
(§1) Data were analyzed using GraphPad Prism software (GraphPad Software, Inc. San Diego, Calif.). For the comparison of the effect of different doses for various drugs on immobility in the FST one-way ANOVA was used followed by Dunnett's multiple comparison test. […] The ED50 and Emax values were statistically compared using two-tail t-test.

[3] = tested on: stressed and non-stressed animals; assay: Resident/Intruder Assay (Chronic Social Stress Assay); assay type: in vivo; conditions: Forced Swim Test, 10 mg/kg p.o.
Source text: The behavioral resident/intruder assay is used to screen compounds for anti-depressant-like activity.

[4] = tested on: CH3/HeJ mice; assay: Mouse Tail Suspension Assay (Acute), TST; assay type: in vivo; conditions: Mus musculus, po, 7 min, p.o., 7-min session
Experimental: In the tail suspension test (TST) for evaluating compounds for anti-depressant activity, mice are suspended by their tails to a metal or plastic rod using clip or scotch tape. The test is usually quite short, 5-7 min, and the amount of time the mice spend immobile is recorded either manually or with an automated device. Agents which have antidepressant activity, decrease the duration of immobility of mice in this test.
The basic apparatus for the tail suspension assay consisted of a yellow plastic chamber (91×45×10 cm) divided for four arenas 25, 20, 20 and 25 cm wide separated by yellow plastic walls 0.75 cm thick. Mice were suspended by their tails using a rubber clip (7 cm long) attached to the plastic rod that was placed on the top of a testing chamber half way through its deep dimension. Each experimental session was videotaped and analyzed for four animals in the real time by computer software (“Depression Scan” Clever Sys Inc.). The computer justification of immobility was calibrated with the use of animals dosed with lorazepam while justification of movement was calibrated with the high dose of desipramine treated animals. Control, vehicle treated animals and animals treated with Compound #8 were analyzed under the calibrated settings. The settings were adjusted separately for dark (CH3/HeJ and C57Bl/6J strains) and white mice (Balb/cJ and A/J strains). A yellow background was used for dark mice and a blue background was used to record movements of white mice.
The ability of a test compound to decrease the duration of immobility, or increase mobility was measured using the TST procedure described above. Acute treatment with clinically effective antidepressants and/or novel compounds that have potential antidepressant properties decrease the duration of immobility and at the same time increases mobility in the TST.
as §1, with “TST” for “FST”, “analyses of variance (ANOVA) were” for “ANOVA was”, “were” for “were statistically”, “two-way ANOVA and Bonferroni post-hoc test.” for “two-tail t-test.”
Positive controls included duloxetine (DLX), venlafaxine (VLX)and desipramine (DMI) which were dissolved in 0.5% methylcellulose and lorazepam (LOR) which was suspended in 0.5% of methylcellulose in water by sonication. All drugs and vehicles were administered orally (p.o.) by gavage in a volume of 10 mL/kg.
The mice were ordered 5 weeks old and at the beginning of experiment their weight was 20±5 g. Animals were housed in groups of four in plastic cages at an ambient temperature of 21° C. to 23° C. with an automated 12/12 hours light/dark cycle and access to water and a commercial rodent food ad libitum.
Each experiment consisted of seven treatment groups with four animals per group. A total of 28 animals per experiment were used. Every two consecutive experiments (1 & 2, 3 & 4, 5 & 6 and 7 & 8) were exact replicas of each other. […] One treatment group of four animals in each experiment was a vehicle treated group. In addition to the vehicle treated group, the effects of DMI at 6 mg/kg, 12 mg/kg, 30 mg/kg, 60 mg/kg and 120 mg/kg and LOR at 5 mg/kg were tested in experiments 1 and 2. […] In experiments 5 and 6 the effects of DLX at 6 mg/kg, 12 mg/kg, 30 mg/kg, 60 mg/kg, 120 mg/kg and LOR at 5 mg/kg were tested. […]

[5] = tested on: submissive rats; assay: Dominant-Submissive Relations (DSR) assay: Reduction of Submissive Behavior Model (RSBM) of depression; assay type: in vivo, Male Sprague Dawley rats; conditions: 10.0 mg/kg i.p.
Experimental: The DSR assay is divided into two models: Reduction of Dominant Behavior Model (RDBM) of mania and Reduction of Submissive Behavior Model (RSBM) of depression. The RDBM, wherein the dominant animals are treated with test compound, is predictive of the ability of the test compound to treat mania. The RSBM, wherein the submissive animals are treated with test compound, is predictive of the ability of the test compound to treat depression.
Male Sprague Dawley rats (140 to 160 g) from Charles River Laboratories Wilmington, Mass. were used in this assay. Shipments of rats were received at two-week intervals. Each shipment went through five-day quarantine, one-week acclimation period, and one-week selection process, followed by five-weeks of drug or vehicle treatment to those pairs selected.
Rats were housed four per cage. Access to food was restricted to one hour per day after testing on Monday through Thursday. After testing on Friday, rats had free access to food until being fasted again on Sunday. At no time were the rats deprived of water. The food deprivation periods used had little effect on weight gain as the average weight of rats was about 300 g at the end of the study. At the conclusion of experiment rats were sacrificed by decapitation, the trunk blood and brains were collected for in vitro experiments and drug concentration measurements.
The basic testing apparatus consisted of two chambers connected with a tunnel only large enough to allow one rat to pass through at a time. On the floor, at the mid-point of the tunnel was a container of sweetened milk. This basic apparatus was replicated, so that a total of four pairs of rats can be video tracked simultaneously. The camera can distinguish rats marked by different colors. Thus, the rats' heads were colored for the purpose of video tracking, red in one cage and yellow in the other cage. Only one animal at a time can have comfortable access to the feeder, but both animals can drink milk during the five-minute daily session. During the five-minute daily sessions, time spent in the feeder zone by each rat was recorded by the video tracking software and saved into a text file.
The test began with a random assignment of rats into pairs. Each member of a pair was placed in an opposite chamber of the testing apparatus. The time spent in the feeder zone by each animal was recorded. During the first week (five days) of testing the animals habituate to the new environment. Dominance was assigned to the animal with the highest score during the second week of testing if three criteria were achieved. First, there must have been a significant difference (two-tailed t-test, P<0.05) between the average daily drinking scores of both animals. Second, the dominant animal score must have been at least 25% greater than the submissive animal's score. Finally, there must have been no “reversals” during the pair selection week where the putative submissive rat out-scored its dominant partner on isolated occasions. Ideally there were minimal reversals during the acclimation week as well. About twenty-five to thirty-three percent of the initial animal pairs achieved these criteria and only these pairs were continued in the study.
Significant differences between time spent on the feeder by dominant and submissive rats were determined by ANOVA using GraphPad Prism software (GraphPad Software, Inc. San Diego, Calif.) followed by a two-tailed t-test (P<0.05). Comparisons were made between treatment groups using normalized dominance level values in paired animals. The dominance level is a value that measures social relation between paired subjects. Dominance level (DL)=FTD−FTS where FTD is the feeder time of dominant rats and FTS is the feeder time of submissive rats. The normalization was conducted according to the formula: Dominance Level (week n in %)=(Dominance Level (week n))/(Dominance Level (week 2) […]

## CN(C)CCCN1c2ccccc2CCc2ccccc21 [Imipramine, imipramine, reference compound]
[1]
  treatment time until increase in sucrose intake reached statistical significance vs Week 0: four weeks

## O=C1Nc2ccc(Cl)cc2C(c2ccccc2Cl)=NC1O (stereo not shown) [Lorazepam, lorazepam, reference compound]
[2]; 1 mg/kg p.o., negative control
  effect on immobility time: no significant effect

## COc1ccc(C(CN(C)C)C2(O)CCCCC2)cc1 (stereo not shown) [Venlafaxine, venlafaxine]
[1]
  treatment time until increase in sucrose intake reached statistical significance vs Week 0: four weeks
[3]; non-stressed
  Immobility during 5 min: Week 5 Mean ± SD: 181.8 ± 27.6
[3]; stressed
  Immobility during 5 min: Week 5 Mean ± SD: 190.4 ± 36.8

## CNCCCN1c2ccccc2CCc2ccccc21 [DMI, desipramine, reference compound]
[4]; read-out: Immobility ED50
  ED50: 27.4 mg/kg
[4]; read-out: Mobility ED50
  ED50: 24.4 mg/kg
[2]; Rattus norvegicus, po, 5 min, p.o., three administrations, 5-minute test session, read-out: ED50 (immobility)
  ED50: 2 ± 0.1 mg/kg
[2]; p.o., immobility
  Emax (immobility): 50.0 ± 8.4 s

## CNCCC(Oc1ccc(C(F)(F)F)cc1)c1ccccc1 (stereo not shown) [fluoxetine, reference compound]
[5]
  loss of significant difference between dominant and submissive rats: lost after third week of treatment
